Test results reported in ChEMBL document CHEMBL1629634, “Postantibiotic effect of tigecycline against 14 gram-positive organisms” (Antimicrob Agents Chemother, 2009).
Converted amounts (≈) assume the structure as drawn.

What was measured:
[1] = system: Acinetobacter baumannii; assay: Antibacterial activity against multidrug-resistant Acinetobacter baumannii producing OXA-24 and OXA-51 beta-lactamases assessed as sub-MIC effect at 0.4 times MIC concentration incubated for 1 hr by viable plate count method; type: functional
[2] = system: Staphylococcus aureus; assay: Antibacterial activity against vancomycin-intermediate methicillin-resistant Staphylococcus aureus assessed as post antibiotic effect at 10 times MIC concentration incubated for 1 hr measured after 1:1000 dilution by viable plate count method; type: functional
[3] = system: Staphylococcus aureus; assay: Antibacterial activity against vancomycin-intermediate methicillin-resistant Staphylococcus aureus assessed as post-antibiotic sub-MIC effect at 0.2 times MIC concentration pretreated with 10 times MIC concentration for 1 hr followed by 1:1000 dilution by viable plate count method; type: functional
[4] = system: Staphylococcus aureus; assay: Antibacterial activity against vancomycin-intermediate methicillin-resistant Staphylococcus aureus assessed as post-antibiotic sub-MIC effect at 0.2 times MIC concentration pretreated with 6 times MIC concentration for 1 hr followed by 1:1000 dilution by viable plate count method; type: functional
[5] = system: Acinetobacter baumannii; assay: Antibacterial activity against multidrug-resistant Acinetobacter baumannii producing OXA-24 and OXA-51 beta-lactamases assessed as sub-MIC effect at 0.3 times MIC concentration incubated for 1 hr by viable plate count method; type: functional
[6] = system: Haemophilus influenzae; assay: Antibacterial activity against amoxicillin, clavulanate-resistant Haemophilus influenzae expressing beta-lactamase by macrodilution method; type: functional
[7] = system: Streptococcus pneumoniae; assay: Antibacterial activity against penicillin-intermediate Streptococcus pneumoniae assessed as post antibiotic effect at 10 times MIC concentration incubated for 1 hr measured after 1:1000 dilution by viable plate count method; type: functional
[8] = system: Staphylococcus aureus; assay: Antibacterial activity against vancomycin-sensitive methicillin-resistant Staphylococcus aureus by macrodilution method; type: functional
[9] = system: Haemophilus influenzae; assay: Antibacterial activity against amoxicillin, clavulanate-resistant Haemophilus influenzae expressing beta-lactamase assessed as post-antibiotic sub-MIC effect at 0.2 times MIC concentration pretreated with 10 times MIC concentration for 1 hr followed by 1:1000 dilution by viable plate count method; type: functional
[10] = system: Streptococcus pneumoniae; assay: Antibacterial activity against penicillin-susceptible Streptococcus pneumoniae assessed as sub-MIC effect at 0.4 times MIC concentration incubated for 1 hr by viable plate count method; type: functional
[11] = system: Streptococcus pneumoniae; assay: Antibacterial activity against Streptococcus pneumoniae infected in neutropenic mouse thighs assessed as post antibiotic effect; type: functional, Thigh muscle
[12] = system: Streptococcus pneumoniae; assay: Antibacterial activity against penicillin-intermediate Streptococcus pneumoniae assessed as sub-MIC effect at 0.2 times MIC concentration incubated for 1 hr by viable plate count method; type: functional
[13] = system: Haemophilus influenzae; assay: Antibacterial activity against amoxicillin, clavulanate-resistant Haemophilus influenzae expressing beta-lactamase assessed as post-antibiotic sub-MIC effect at 0.3 times MIC concentration pretreated with 6 times MIC concentration for 1 hr followed by 1:1000 dilution by viable plate count method; type: functional
[14] = system: Staphylococcus aureus; assay: Antibacterial activity against vancomycin-sensitive methicillin-resistant Staphylococcus aureus assessed as sub-MIC effect at 0.3 times MIC concentration incubated for 1 hr by viable plate count method; type: functional
[15] = system: Staphylococcus aureus; assay: Antibacterial activity against vancomycin-sensitive methicillin-resistant Staphylococcus aureus assessed as post-antibiotic sub-MIC effect at 0.3 times MIC concentration pretreated with 6 times MIC concentration for 1 hr followed by 1:1000 dilution by viable plate count method; type: functional
[16] = system: Escherichia coli; assay: Antibacterial activity against Escherichia coli assessed as post-antibiotic sub-MIC effect at 0.4 times MIC concentration pretreated with 10 times MIC concentration for 1 hr followed by 1:1000 dilution by viable plate count method; type: functional
[17] = system: Haemophilus influenzae; assay: Antibacterial activity against beta-lactamase deficient ampicillin-resistant Haemophilus influenzae assessed as post-antibiotic sub-MIC effect at 0.3 times MIC concentration pretreated with 10 times MIC concentration for 1 hr followed by 1:1000 dilution by viable plate count method; type: functional
[18] = Half life in patient serum at 100 mg, iv followed by 50 mg every 12 hrs after 60 mins post dose; type: ADME, organism-based; conditions: human
[19] = system: Streptococcus pneumoniae; assay: Antibacterial activity against penicillin-intermediate Streptococcus pneumoniae assessed as sub-MIC effect at 0.3 times MIC concentration incubated for 1 hr by viable plate count method; type: functional
[20] = system: Haemophilus influenzae; assay: Antibacterial activity against beta-lactamase deficient and ampicillin-resistant Haemophilus influenzae by macrodilution method; type: functional
[21] = system: Escherichia coli; assay: Antibacterial activity against Escherichia coli infected in neutropenic mouse thighs assessed as post antibiotic effect; type: functional, Thigh muscle
[22] = system: Acinetobacter baumannii; assay: Antibacterial activity against multidrug-resistant Acinetobacter baumannii producing OXA-24 and OXA-51 beta-lactamases assessed as post-antibiotic sub-MIC effect at 0.4 times MIC concentration pretreated with 10 times MIC concentration for 1 hr followed by 1:1000 dilution by viable plate count method; type: functional
[23] = system: Acinetobacter baumannii; assay: Antibacterial activity against Acinetobacter baumannii assessed as post antibiotic effect at 6 times MIC concentration incubated for 1 hr measured after 1:1000 dilution by viable plate count method; type: functional
[24] = Drug level in patient serum at 100 mg, iv followed by 50 mg every 12 hrs after 60 mins post dose; type: ADME, organism-based; conditions: human, read-out: Drug uptake
[25] = system: Enterobacter cloacae; assay: Antibacterial activity against Enterobacter cloacae assessed as sub-MIC effect at 0.4 times MIC concentration incubated for 1 hr by viable plate count method; type: functional
[26] = system: Escherichia coli; assay: Antibacterial activity against Escherichia coli assessed as post-antibiotic sub-MIC effect at 0.3 times MIC concentration pretreated with 10 times MIC concentration for 1 hr followed by 1:1000 dilution by viable plate count method; type: functional
[27] = system: Streptococcus pneumoniae; assay: Antibacterial activity against penicillin-susceptible Streptococcus pneumoniae assessed as post antibiotic effect at 10 times MIC concentration incubated for 1 hr measured after 1:1000 dilution by viable plate count method; type: functional
[28] = system: Haemophilus influenzae; assay: Antibacterial activity against beta-lactamase deficient and ampicillin-resistant Haemophilus influenzae assessed as sub-MIC effect at 0.3 times MIC concentration incubated for 1 hr by viable plate count method; type: functional
[29] = system: Staphylococcus aureus; assay: Antibacterial activity against vancomycin-intermediate methicillin-resistant Staphylococcus aureus by macrodilution method; type: functional
[30] = system: Enterococcus faecalis; assay: Antibacterial activity against vancomycin-resistant Enterococcus faecalis assessed as sub-MIC effect at 0.2 times MIC concentration incubated for 1 hr by viable plate count method; type: functional
[31] = system: Klebsiella pneumoniae; assay: Antibacterial activity against Klebsiella pneumoniae assessed as sub-MIC effect at 0.4 times MIC concentration incubated for 1 hr by viable plate count method; type: functional
[32] = system: Enterobacter cloacae; assay: Antibacterial activity against Enterobacter cloacae assessed as post antibiotic effect; type: functional
[33] = system: Staphylococcus aureus; assay: Antibacterial activity against vancomycin-sensitive methicillin-resistant Staphylococcus aureus assessed as post-antibiotic sub-MIC effect at 0.3 times MIC concentration pretreated with 10 times MIC concentration for 1 hr followed by 1:1000 dilution by viable plate count method; type: functional
[34] = system: Enterobacter cloacae; assay: Antibacterial activity against Enterobacter cloacae assessed as post antibiotic effect at 2 times MIC concentration incubated for 1 hr measured after 1:1000 dilution by viable plate count method; type: functional
[35] = system: Enterococcus faecium; assay: Antibacterial activity against Enterococcus faecium assessed as post antibiotic effect; type: functional
[36] = system: Haemophilus influenzae; assay: Antibacterial activity against amoxicillin, clavulanate-resistant Haemophilus influenzae expressing beta-lactamase assessed as post-antibiotic sub-MIC effect at 0.3 times MIC concentration pretreated with 10 times MIC concentration for 1 hr followed by 1:1000 dilution by viable plate count method; type: functional
[37] = system: Klebsiella pneumoniae; assay: Antibacterial activity against Klebsiella pneumoniae assessed as sub-MIC effect at 0.2 times MIC concentration incubated for 1 hr by viable plate count method; type: functional

**Q.** For `CN(C)c1cc(NC(=O)CNC(C)(C)C)c(O)c2c1C[C@H]1C[C@H]3[C@H](N(C)C)C(O)=C(C(N)=O)C(=O)[C@@]3(O)C(O)=C1C2=O` [TIGECYCLINE], which PAE [1] is on record?
**A.** 1.9 h

**Q.** What about the PAE [2] of the same molecule?
**A.** 4 h

**Q.** And the PAE [3]?
**A.** 6.6 h

**Q.** What about the PAE [4] of the same molecule?
**A.** 5.6 h

**Q.** And the PAE [5]?
**A.** 0.7 h

**Q.** And the MIC [6]?
**A.** 0.12 µg/mL

**Q.** And the PAE [7]?
**A.** 1.9 h

**Q.** What about the MIC [8] of the same molecule?
**A.** 0.12 µg/mL (≈ 0.205 µM)

**Q.** And the PAE [9]?
**A.** 3.9 h

**Q.** And the PAE [10]?
**A.** 0.8 h

**Q.** What about the PAE [11] of the same molecule?
**A.** 8.9 h

**Q.** What about the PAE [12] of the same molecule?
**A.** 1.9 h

**Q.** And the PAE [13]?
**A.** 4.7 h

**Q.** And the PAE [14]?
**A.** 0.2 h

**Q.** What about the PAE [15] of the same molecule?
**A.** 4.9 h

**Q.** And the PAE [16]?
**A.** 3.5 h

**Q.** What about the PAE [17] of the same molecule?
**A.** 2.8 h

**Q.** What about the half-life [18] of the same molecule?
**A.** 40 h

**Q.** What about the PAE [19] of the same molecule?
**A.** 5.7 h

**Q.** And the MIC [20]?
**A.** 0.06 µg/mL (≈ 0.102 µM)

**Q.** What about the PAE [21] of the same molecule?
**A.** 4.9 h

**Q.** And the PAE [22]?
**A.** 3.8 h

**Q.** And the PAE [23]?
**A.** 1.8 h

**Q.** And the concentration at 1 h [24]?
**A.** 600 ng/mL

**Q.** And the PAE [25]?
**A.** 2.7 h

**Q.** And the PAE [26]?
**A.** 2.2 h

**Q.** And the PAE [27]?
**A.** 3.7 h

**Q.** What about the PAE [28] of the same molecule?
**A.** 0.8 h

**Q.** And the MIC [29]?
**A.** 0.12 µg/mL (≈ 0.205 µM)

**Q.** What about the PAE [30] of the same molecule?
**A.** 0.4 h

**Q.** And the PAE [31]?
**A.** 0.7 h

**Q.** And the PAE [32]?
**A.** 2 h

**Q.** And the PAE [33]?
**A.** 5.2 h

**Q.** What about the PAE [34] of the same molecule?
**A.** 1 h

**Q.** What about the PAE [35] of the same molecule?
**A.** 2.5 h

**Q.** And the PAE [36]?
**A.** 5.4 h

**Q.** What about the PAE [37] of the same molecule?
**A.** 0.1 h
